Molecules are shown by their SMILES. Marks after values point to notes of the source that are not given here.

This note sets out measurements from patent US6376518B1, “Acyl derivatives of 4-demethylpenclomedine, use thereof and preparation thereof” (Southern Research Institute, priority 1999, dated 2002).

Assay [1] is described as follows: Anti-cancer activity of precursor compounds.
For assay [2], the system named is human MX-1 mammary tumor. Put plainly: In vivo antitumor activity vs s.c.-implanted human MX-1 mammary tumor xenograft in athymic mice. The note with it: for T-C / Tumor-Free-Surv/Total: sc MX-1; for antitumor activity (in words): MX-1 implanted s.c. or i.c. On the technique in general: A xenograft is tissue or cells of one species grown in another, often human tumour cells in immunodeficient mice.

Assay [3] concerns human MX-1 mammary tumor. Put plainly: In vivo antitumor activity vs i.c.-implanted human MX-1 mammary tumor xenograft in athymic mice. The conditions noted are these: ic MX-1; for Median % ILS (dying mice only) / Tumor-Free-Surv/Total: Days 1-5.
Where [4] appears, read: oral (gavage) 135 mg/kg/dose, Days 13-17.
The mark [5] stands for this setting: oral (gavage) 135 mg/kg/dose, Days 12-16.
[6] abbreviates: optimal doses (LD10 or less), schedule QD1-5, administered LP.

`CCOc1nc(C(Cl)(Cl)Cl)c(Cl)c(OCC)c1Cl` [3,5-dichloro-4,6-diethoxy-2-(trichloromethyl)pyridine]: in assay [1], the “anti-cancer activity (in words)” value was “active anti-cancer activity”.
For `C=CC(=O)Oc1c(Cl)c(OC)nc(C(Cl)(Cl)Cl)c1Cl` [DM-AC-PEN], in the assay on human MX-1 mammary tumor [2] (IP 60 mg/kg/dose, Days 12-16), the T-C is 30.0 days and the Tumor-Free-Surv/Total was 1/5. Further, the “Median % ILS (dying mice only)” value with human MX-1 mammary tumor [3] (IP 60 mg/kg/dose) is “+55%”.
As for `COc1nc(C(Cl)(Cl)Cl)c(Cl)c(OC(=O)C(C)(C)C)c1Cl` [DM-P-PEN], the Tumor-Free-Surv/Total is given as 5/5 with human MX-1 mammary tumor [2] (IP 135 mg/kg/dose, Days 11-15) and 0/5 in the assay with human MX-1 mammary tumor [2] (setting [4]). The same compound displayed a T-C in the assay on human MX-1 mammary tumor [2] (setting [4]) of 0.9 days. The “Median % ILS (dying mice only)” value with human MX-1 mammary tumor [3] (IP 135 mg/kg/dose) is on record as “+64%”; with human MX-1 mammary tumor [3] (oral (gavage) 135 mg/kg/dose) it was “+20%”.
In the case of `COc1nc(C(Cl)(Cl)Cl)c(Cl)c(OC(=O)CCl)c1Cl` [DM-CA-PEN], the T-C with human MX-1 mammary tumor [2] (IP 60 mg/kg/dose, Days 12-16) is given as more than 41.0 days; with human MX-1 mammary tumor [2] (setting [5]) it was more than 41.0 days. Besides, the Tumor-Free-Surv/Total in the assay on human MX-1 mammary tumor [2] (IP 60 mg/kg/dose, Days 12-16) is 3/5; in the assay with human MX-1 mammary tumor [2] (setting [5]), 5/5. Further, the “Median % ILS (dying mice only)” value with human MX-1 mammary tumor [3] (oral (gavage) 135 mg/kg/dose) is given as “+84%”.
In the case of `CCOc1c(Cl)c(OC)nc(C(Cl)(Cl)Cl)c1Cl` [3,5-dichloro-4-ethoxy-6 methoxy-2-(trichloromethyl) pyridine], the “anti-cancer activity (in words)” value in assay [1] is “active anti-cancer activity”.
Consider `COC(=O)CCC(=O)Oc1c(Cl)c(OC)nc(C(Cl)(Cl)Cl)c1Cl` [DM-CMP-PEN], for which the Tumor-Free-Surv/Total in the assay with human MX-1 mammary tumor [2] (IP 135 mg/kg/dose, Days 11-15) is reported as 3/5; in the assay with human MX-1 mammary tumor [2] (setting [4]), 2/5. The entries for the “Median % ILS (dying mice only)” value with human MX-1 mammary tumor [3] (IP 90 mg/kg/dose) and with human MX-1 mammary tumor [3] (oral (gavage) 90 mg/kg/dose) were “+87%” and “+76%”, respectively.
Consider `COc1nc(C(Cl)(Cl)Cl)c(Cl)c(OC(=O)c2cccs2)c1Cl` [DM-TC-PEN], for which the Tumor-Free-Surv/Total with human MX-1 mammary tumor [2] (IP 90 mg/kg/dose, Days 12-16) is recorded as 4/5. In the assay on human MX-1 mammary tumor [3], the “activity against i.c.-implanted tumor in comparison to PEN and DM-PEN (in words)” value was “significant activity”. In addition, in the assay on human MX-1 mammary tumor [3] (IP 135 mg/kg/dose), the “Median % ILS (dying mice only)” value is listed as “+100%” and the Tumor-Free-Surv/Total is 0/5. Moreover, in the assay on human MX-1 mammary tumor [3] (setting [6]), the “Median % ILS (based on dying mice only)” value is 100^d % and the Survivors was 0/5.
For the compound `COc1nc(C(Cl)(Cl)Cl)c(Cl)c(OC(=O)c2ccc([N+](=O)[O-])o2)c1Cl` [DM-NF-PEN], in the assay on human MX-1 mammary tumor [2] (IP 90 mg/kg/dose, Days 12-16), the Tumor-Free-Surv/Total is given as 4/5. In the assay on human MX-1 mammary tumor [3] (IP 135 mg/kg/dose), the “Median % ILS (dying mice only)” value is “+59%”.
In the case of `COc1nc(C(Cl)(Cl)Cl)c(Cl)c(OC(=O)c2ccccc2)c1Cl` [DM-B-PEN], the “antitumor activity (in words)” value with human MX-1 mammary tumor [2] (i.p. administration) is “high activity”; in the assay with human MX-1 mammary tumor [2] (oral drug treatment), “low antitumor activity”. Further, the Tumor-Free-Surv/Total was 5/5 with human MX-1 mammary tumor [2] (IP 135 mg/kg/dose, Days 11-15) and 0/5 with human MX-1 mammary tumor [2] (setting [4]). In the assay with human MX-1 mammary tumor [2] (setting [4]), this compound returned a T-C of -1.4 days. The entries for the “Median % ILS (dying mice only)” value in the assay on human MX-1 mammary tumor [3] (IP 135 mg/kg/dose) and in the assay with human MX-1 mammary tumor [3] (oral (gavage) 135 mg/kg/dose) were “+84%” and “+12%”, respectively.
`COc1nc(C(Cl)(Cl)Cl)c(Cl)c(OC(=O)c2ccco2)c1Cl` [DM-F-PEN]: the Tumor-Free-Surv/Total is reported as 5/5 with human MX-1 mammary tumor [2] (IP 90 mg/kg/dose, Days 12-16) and 2/5 with human MX-1 mammary tumor [3] (IP 135 mg/kg/dose). Besides, the “activity against i.c.-implanted tumor in comparison to PEN and DM-PEN (in words)” value in the assay with human MX-1 mammary tumor [3] is reported as “significant activity”. Besides, in the assay on human MX-1 mammary tumor [3] (setting [6]), the Survivors was 2/5.
